From US5730876A, “Separation and purification of low molecular weight chitosan using multi-step membrane separation process” (You; Hyang-Ja, priority 1997, dated 1998)
Where a name gives a salt, the structure may show the parent alone.

Tests used:
[1] = CH3OH solubility of chitosan oligosaccharides (Table 1); format: physicochemical; conditions: methanol, organic solvent or mixture
[2] = Solubility in water of chitosan oligosaccharides (Table 1); format: physicochemical
[3] = CH3OH, 20° C., read-out: CH3OH Solubility
[4] = in water, read-out: Solubility (% in water)

Row | SMILES | solubility [1, 3] [mg/mL] | solubility [2, 4] [mg/mL] | solubility [1] [mg/mL] | solubility ([2]; water) [mg/mL]
1 | N[C@H]1[C@H](O[C@H]2[C@H](O)[C@@H](N)[C@H](O[C@H]3[C@H](O)[C@@H](N)C(O)O[C@@H]3CO)O[C@@H]2CO)O[C@H](CO)[C@@H](O)[C@@H]1O (stereo partly drawn) [Chitotriose HCl] | 370 | 1770 | – | –
2 | N[C@H]1[C@H](O[C@H]2[C@H](O)[C@@H](N)[C@H](O[C@H]3[C@H](O)[C@@H](N)[C@H](O[C@H]4[C@H](O)[C@@H](N)C(O)O[C@@H]4CO)O[C@@H]3CO)O[C@@H]2CO)O[C@H](CO)[C@@H](O)[C@@H]1O (stereo partly drawn) [Chitotetrose HCl] | 450 | 1580 | – | –
3 | N[C@H]1[C@H](O[C@H]2[C@H](O)[C@@H](N)[C@H](O[C@H]3[C@H](O)[C@@H](N)[C@H](O[C@H]4[C@H](O)[C@@H](N)[C@H](O[C@H]5[C@H](O)[C@@H](N)C(O)O[C@@H]5CO)O[C@@H]4CO)O[C@@H]3CO)O[C@@H]2CO)O[C@H](CO)[C@@H](O)[C@@H]1O (stereo partly drawn) [Chitopentose HCl] | 46 | 860 | – | –
4 | Cl.N[C@H]1C(O)O[C@H](CO)[C@@H](O)[C@@H]1O (stereo partly drawn) [D-Glucosamine HCl] | – | – | 4 | 371
5 | N[C@H]1[C@H](O[C@H]2[C@H](O)[C@@H](N)[C@H](O[C@H]3[C@H](O)[C@@H](N)[C@H](O[C@H]4[C@H](O)[C@@H](N)[C@H](O[C@H]5[C@H](O)[C@@H](N)[C@H](O[C@H]6[C@H](O)[C@@H](N)C(O)O[C@@H]6CO)O[C@@H]5CO)O[C@@H]4CO)O[C@@H]3CO)O[C@@H]2CO)O[C@H](CO)[C@@H](O)[C@@H]1O (stereo partly drawn) [Chitohexose HCl] | 17 | 680 | – | –
6 | N[C@H]1[C@H](O[C@H]2[C@H](O)[C@@H](N)C(O)O[C@@H]2CO)O[C@H](CO)[C@@H](O)[C@@H]1O (stereo partly drawn) [Chitobiose HCl] | 54 | 1900 | – | –
